Laboratory results taken from PMC10730845, “Endoxifen downregulates AKT phosphorylation through protein kinase C beta 1 inhibition in ERα+ breast cancer” (NPJ Breast Cancer, 2023).
“And” between values parts separate entries of the source, which are not always exact repeats. Equal values may be shown once. Read-outs that look alike come from different tables or passages of the source.

Columns and labels:
PKC zeta (PKCz) = PKC zeta (PKCz) (Homo sapiens, UniProt Q05513); experiment: In vitro kinase assay, PKC zeta; assay type: biochemical; conditions: 10 μM ATP
Chain of PKC zeta (PKCz) (Q05513 whole entry): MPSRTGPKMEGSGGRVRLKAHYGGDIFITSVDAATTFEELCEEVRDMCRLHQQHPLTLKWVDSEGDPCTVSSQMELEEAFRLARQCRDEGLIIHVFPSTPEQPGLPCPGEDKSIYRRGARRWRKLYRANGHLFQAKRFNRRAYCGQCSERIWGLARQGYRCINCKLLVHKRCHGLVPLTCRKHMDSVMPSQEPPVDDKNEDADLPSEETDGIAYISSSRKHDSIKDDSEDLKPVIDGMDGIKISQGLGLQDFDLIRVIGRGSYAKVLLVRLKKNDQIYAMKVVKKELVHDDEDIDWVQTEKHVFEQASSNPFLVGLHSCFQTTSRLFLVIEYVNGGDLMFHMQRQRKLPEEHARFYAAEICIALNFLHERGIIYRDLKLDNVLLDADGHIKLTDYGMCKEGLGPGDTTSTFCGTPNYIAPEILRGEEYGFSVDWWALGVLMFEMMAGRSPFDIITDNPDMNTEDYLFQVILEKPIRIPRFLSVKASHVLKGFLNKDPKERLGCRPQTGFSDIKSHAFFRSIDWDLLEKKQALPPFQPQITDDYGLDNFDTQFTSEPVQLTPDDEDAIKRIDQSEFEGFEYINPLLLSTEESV
From the text: (§1) Supplementary Table 4. In vitro kinase assay showing the IC 50 concentration of ENDX and
(§2) of the 12 PKC family members.
(§3) (1 picture or pasted object on this page, not shown here)

[1] = phase I, cited from earlier work; for Cmax: read-out: Peak serum concentration (Cmax)
MCF7AC1 cells = experiment: Crystal violet cell viability / proliferation assay, MCF7AC1; assay type: cell-based, human; conditions: CSS medium, 48 h, 0 to 10 µM tested
Protocol: Fig. 1 Z-endoxifen (ENDX) effects on cell viability and apoptosis in estrogen deprived ERα+ /HER2- MCF7AC1 cells. a Cells grown in CSS medium were treated with vehicle control or the indicated ENDX concentrations for […]. Cell viability was assessed by the crystal violet assay. b Cells were co-treated with vehicle control or the indicated ENDX concentrations, IncuCyte Annexin V green and NucLight red reagents in CSS medium for 48 h. […] Data represents the mean of six wells per treatment performed as biological duplicates ± s.d. **p ≤ 0.01; ***p ≤ 0.001; ****p ≤ 0.0001 by one-way ANOVA.
Cells were plated at a density of 2000 cells per well. Cell viability of (i) vehicle or drug treated MCF7AC1 and T47D-LTED cells in CSS medium, (ii) siNT or siPKCβ-transfected MCF7AC1 cells in CSS medium and (iii) T47D cells in FBS versus CSS medium were analyzed by crystal violet staining assay after 6 days of treatment or siRNA transfection as previously described. Cell viability was calculated as the average absorbance of the drug treated cells divided by the average absorbance of the vehicle treated cells × 100.

PKC mu (PKCm/PRKD1) = PKC mu (PKCm/PRKD1) (Homo sapiens, UniProt Q15139); experiment: In vitro kinase assay, PKC mu; assay type: biochemical; conditions: 10 μM ATP
Chain of PKC mu (PKCm/PRKD1) (Q15139 whole entry): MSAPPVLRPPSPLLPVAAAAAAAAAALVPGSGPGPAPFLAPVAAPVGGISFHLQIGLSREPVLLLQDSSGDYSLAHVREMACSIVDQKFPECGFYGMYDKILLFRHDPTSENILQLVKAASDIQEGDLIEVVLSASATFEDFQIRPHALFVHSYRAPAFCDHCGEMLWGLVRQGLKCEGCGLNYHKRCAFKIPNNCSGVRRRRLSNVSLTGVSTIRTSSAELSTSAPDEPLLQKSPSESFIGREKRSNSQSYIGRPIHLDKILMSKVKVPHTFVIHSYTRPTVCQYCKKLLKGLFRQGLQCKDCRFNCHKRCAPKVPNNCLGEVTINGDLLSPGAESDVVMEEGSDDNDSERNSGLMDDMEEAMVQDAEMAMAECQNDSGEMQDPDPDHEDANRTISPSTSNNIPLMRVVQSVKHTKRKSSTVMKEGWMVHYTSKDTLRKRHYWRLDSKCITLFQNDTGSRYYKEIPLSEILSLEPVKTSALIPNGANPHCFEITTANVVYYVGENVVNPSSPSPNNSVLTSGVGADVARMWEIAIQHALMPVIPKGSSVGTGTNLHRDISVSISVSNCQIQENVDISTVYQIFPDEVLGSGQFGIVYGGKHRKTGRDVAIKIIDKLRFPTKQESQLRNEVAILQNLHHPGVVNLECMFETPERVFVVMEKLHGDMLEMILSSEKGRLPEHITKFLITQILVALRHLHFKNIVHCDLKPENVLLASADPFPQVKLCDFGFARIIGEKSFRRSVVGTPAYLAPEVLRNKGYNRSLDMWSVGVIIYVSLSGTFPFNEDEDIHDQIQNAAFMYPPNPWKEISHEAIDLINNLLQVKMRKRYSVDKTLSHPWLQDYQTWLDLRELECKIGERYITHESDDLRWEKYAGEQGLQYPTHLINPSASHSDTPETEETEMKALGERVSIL
From the text: as §1, §2, §3

PKC eta (PKCh) = PKC eta (PKCh) (Homo sapiens, UniProt P24723); experiment: In vitro kinase assay, PKC eta; assay type: biochemical; conditions: 10 μM ATP
Chain of PKC eta (PKCh) (P24723 whole entry): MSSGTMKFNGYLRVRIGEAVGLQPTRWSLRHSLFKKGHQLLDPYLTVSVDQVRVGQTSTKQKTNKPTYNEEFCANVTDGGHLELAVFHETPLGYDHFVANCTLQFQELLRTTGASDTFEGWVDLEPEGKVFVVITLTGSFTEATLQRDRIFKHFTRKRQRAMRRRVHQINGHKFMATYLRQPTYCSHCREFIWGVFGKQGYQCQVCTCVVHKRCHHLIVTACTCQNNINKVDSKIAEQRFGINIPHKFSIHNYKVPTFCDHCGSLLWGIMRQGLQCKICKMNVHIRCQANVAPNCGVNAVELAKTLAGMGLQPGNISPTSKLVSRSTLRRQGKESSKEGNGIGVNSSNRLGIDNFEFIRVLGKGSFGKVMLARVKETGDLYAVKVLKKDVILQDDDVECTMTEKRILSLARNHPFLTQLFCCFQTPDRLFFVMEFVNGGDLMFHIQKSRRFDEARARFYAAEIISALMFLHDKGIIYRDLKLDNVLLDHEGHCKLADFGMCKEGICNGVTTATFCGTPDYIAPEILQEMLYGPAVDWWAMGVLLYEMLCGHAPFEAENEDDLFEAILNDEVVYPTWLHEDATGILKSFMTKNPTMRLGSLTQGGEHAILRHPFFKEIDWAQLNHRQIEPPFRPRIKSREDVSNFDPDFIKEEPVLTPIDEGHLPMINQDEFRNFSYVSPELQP
From the text: as §1, §2, §3

PKCβ1 [2] = target: T1, PKCβ1 (Homo sapiens, UniProt P05771); experiment: Surface plasmon resonance (SPR) binding to immobilized PKCβ1; conditions: 100–8000 nM ENDX; no saturation, accurate KD could not be established
T1 sequence (P05771 whole entry): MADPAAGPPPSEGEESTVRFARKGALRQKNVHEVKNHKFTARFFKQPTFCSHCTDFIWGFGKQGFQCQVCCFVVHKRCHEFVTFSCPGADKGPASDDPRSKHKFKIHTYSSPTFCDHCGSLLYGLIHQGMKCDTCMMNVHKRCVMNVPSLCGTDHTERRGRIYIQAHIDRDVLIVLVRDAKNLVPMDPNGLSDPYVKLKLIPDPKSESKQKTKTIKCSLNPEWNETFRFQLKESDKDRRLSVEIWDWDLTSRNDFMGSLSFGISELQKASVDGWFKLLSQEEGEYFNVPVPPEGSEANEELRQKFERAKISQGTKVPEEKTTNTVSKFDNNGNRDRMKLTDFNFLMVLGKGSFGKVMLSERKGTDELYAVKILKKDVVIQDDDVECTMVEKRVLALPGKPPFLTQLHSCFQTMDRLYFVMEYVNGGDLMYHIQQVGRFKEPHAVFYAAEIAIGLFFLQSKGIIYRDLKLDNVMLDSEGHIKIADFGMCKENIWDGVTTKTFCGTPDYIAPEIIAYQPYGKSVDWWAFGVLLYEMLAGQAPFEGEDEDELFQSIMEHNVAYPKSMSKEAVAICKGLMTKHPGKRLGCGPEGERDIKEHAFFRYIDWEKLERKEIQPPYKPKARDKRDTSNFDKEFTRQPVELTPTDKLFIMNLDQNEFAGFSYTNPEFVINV
Protocol: Binding assays were performed at 25 °C on a Biacore T200 biosensor (GE healthcare). Purified PKCβ1 protein were immobilized on a CM5 S sensor chip using amino coupling and immobilization buffer (10 mM HEPES, 150 mM NaCl, pH 7.4, P20 0.01% (w/w)) and acetate pH 5.0 at a flow rate of 10 µL/min and reaching 10,000-12,000 resonance units (RUs). ENDX at concentrations ranging from 0–8000 nM in phosphate buffer (Gibco) with 2% DMSO (v/v) and 0.01% (w/w) P20 were run over the chips at a flow rate of 50 µl/min for 30 s. Binding kinetics were derived from sensograms using Biacore BIA evaluation software (GE). Sensograms were subtracted for background contributions, and affinity constants were derived using a steady-state affinity fitting of a 1:1 interaction model.

PKCβ1 in MCF7AC1 cells = experiment: Immunoblot of PKCβ1 and pPKCβ1^Ser661, MCF7AC1; assay type: cell-based, human; conditions: serum starved; for Effect on PMA-stimulated PKCβ1^Ser661 phosphorylation: 2 h pretreatment, 200 nM PMA 20 min
Protocol: The ENDX hydrochloride utilized in this study was synthesized in collaboration between Mayo Clinic and National Institute of Health (NIH). Estrogen deprived MCF7AC1 were treated with vehicle control or ENDX (National Cancer Institute) for 24 h. For the phorbol 12-myristate 13-acetate (PMA) (LC Laboratories, #P-1680) experiments, MCF7AC1 cells were maintained in serum-free medium for 24 h prior to pretreatment with vehicle or ENDX for 2 h followed by treatment with 20 or 200 nM PMA for 20 min. For the insulin (Sigma-Aldrich, #I0516) experiments, MCF7AC1 and T47D cells were maintained in serum-free medium for 24 h prior to pretreatment with vehicle control or drugs for 2 h followed by treatment with 100 nM insulin for 1 h.
Protein lysates were prepared using the RIPA lysis buffer system (ChemCruz #sc-24948) and quantified using the DC^TM Protein Assay reagents (Bio-Rad #5000112). Equal amounts of protein lysates were separated on 10% Criterion gels (Bio-Rad #3450112), transferred to PVDF membranes (Bio-Rad #1620177), blocked in TBST-5% milk and probed with primary antibodies listed in Supplementary Table 5, at the indicated dilutions. Membranes were incubated with HRP-conjugated anti-rabbit (CST #7074) or anti-mouse (CST #7076) secondary antibodies and visualized using chemiluminescent West Pico (Thermo Scientific #34580) or West Femto (Thermo Scientific #34096) reagents and a Li-Cor Odyssey® XF imager. Protein lysates from the MCF7AC1 xenograft model were obtained from a previous study. Quantitation of the protein bands signal intensity was performed using the NIH ImageJ image analysis software (https://imagej.nih.gov/ij///index.html). For the quantitation of the phospho protein levels, we first normalized total protein levels to β-actin loading control and used these values to normalize the phospho protein levels and compared change in protein expression levels relative to vehicle control normalized to 1.0. For the quantitation of total protein levels, we normalized the total protein levels to β-actin and compared change in expression levels relative to vehicle control normalized to 1.0. All blots were processed in parallel and derived from the same experiments. Unprocessed immunoblot images are provided in Supplementary Figs. 9–13.

[3] = set-up: method as in PMID 24853369, PMID 28977607; conditions: low (10 mg/kg) and high (50 mg/kg) doses; cited from earlier work
PKCβ1 [4] = target: T1, PKCβ1; experiment: In vitro kinase assay, PKCβ1 kinase activity; assay type: biochemical; conditions: 10 μM ATP, three-fold serial dilution from 50 μM, Fig. 6d

CC/C(=C(\c1ccc(O)cc1)c1ccc(OCCNC)cc1)c1ccccc1 [ENDX, Z-endoxifen]
IC50 (PKC zeta (PKCz)): 48.1 µM
Peak serum concentration (Cmax) ([1]; Day 28, 80 mg/day): 913 ± 142 ng/mL
Cmax ([1]; Day 28, 80 mg/day): 2.44 ± 0.38 µM
Peak serum concentration (Cmax) ([1]; Day 28, 200 mg/day): 1641 ± 830 ng/mL
Cmax ([1]; Day 28, 200 mg/day): 4.39 ± 2.22 µM
Concentrations that significantly reduced cell viability (MCF7AC1 cells): ≥ 2.5 µM
IC50 (PKC mu (PKCm/PRKD1)): 31.6 µM
IC50 (PKC eta (PKCh)): > 50 µM
Binding to PKCβ1 by SPR (PKCβ1 [2]): binds PKCβ1
Effect on PKCβ1^Ser661 phosphorylation in insulin treated cells (PKCβ1 in MCF7AC1 cells; 100 nM insulin 1 h): no effects on PKCβ1^Ser661 phosphorylation
Effect on PKCβ1 total protein in insulin treated cells (PKCβ1 in MCF7AC1 cells; 100 nM insulin 1 h, ENDX 0.01, 0.1, 5 µM, TAM 0.1 µM, ICI 0.1 µM): reduced PKCβ1 total protein levels
Effect on PMA-stimulated PKCβ1^Ser661 phosphorylation (PKCβ1 in MCF7AC1 cells; 5 μM): minimal
Effect on PMA-stimulated PKCβ1^Ser661 phosphorylation (PKCβ1 in MCF7AC1 cells; 0.01, 0.1 μM): no
Concentration robustly reducing PKCβ1 total protein levels (PKCβ1 in MCF7AC1 cells; PMA-stimulated, 0.01, 0.1 and 5 μM tested): 5 µM
Effects on the bone [3]: increasing cancellous and cortical bone mass, reducing bone turnover, and protecting against bone loss
IC50 (PKCβ1 [4]): 0.357 µM and 0.36 µM
